PMC12123458, “Unraveling Small Molecule-Mediated Sirtuin 3 Activation at a Distinct Binding Site for Cardioprotective Therapies” (ACS Central Science, 2025)

Tests used:
H9c2 cells = experiment: Dox-induced cardiotoxicity model in H9c2 cells, MTT cell viability; format: cell-based; conditions: for effect of co-treatment on the cardioprotective efficacy of SKLB-11A: Dox-treated H9c2 cells, cell viability; for viability at 10 µM: Rattus norvegicus, H9c2, 10 µM pretreatment 24 h, then 1 µM Dox 24 h, MTT, Model (Dox) = Dox alone, read-out: Cardiomyocyte survival rate at 10 uM (%)
Description: H9c2 cardiomyocytes were cultured in high-glucose DMEM supplemented with 10% FBS and 1% penicillin/streptomycin under a 5% CO2 atmosphere at 37 °C. Cells were seeded at 5 × 10^4 cells/mL in 96-well plates and treated with 1 μM Dox for 24 h. After Dox treatment, cell viability was quantified via MTT assay; 3-(4,5-dimethythiazol-2-yl)-2,5-diphenyltetrazolium bromide (MTT, 5 mg/mL) was applied for 4 h, followed by DMSO dissolution of formazan crystals. Additionally, cells were pretreated with 10 μM SKLB-11A for 24 h prior to 1 μM Dox exposure, and viability was similarly assessed using MTT.

[1] = system: LC3, p62, PINK1, Parkin in H9c2 cells; experiment: Autophagy/mitophagy markers in H9c2 cells (Western blot, immunofluorescence); format: cell-based; conditions: 24 h
Description: Proteomic analysis was conducted on H9c2 cells and murine cardiac tissues. Protein lysates were resolved via SDS-PAGE and transferred onto PVDF membranes. […] After washing, membranes were probed with secondary antibodies for 1 h at room temperature. Detection was facilitated by an ECL kit, with densitometry performed using ImageJ software to quantify protein expression, normalized against controls. The antibodies employed included: anti-SIRT3 (2627, Cell Signaling Technology), anti-acetylated lysine (9441, CST), anti-Ac.K68-MnSOD2 (ab137037, Abcam), anti-Ac.K122-MnSOD2 (ab214675, Abcam), anti-MnSOD2 (13141, CST), anti-LC3B (3868, CST), anti-p62 (8025, CST), anti-PINK1 (6946, CST), anti-Parkin (4211, CST), and anti-β-actin (ab8226, Abcam).

SIRT3 = target: T1, SIRT3 (Homo sapiens, UniProt Q9NTG7); experiment: Fluor de Lys (FDL) fluorimetric SIRT3 deacetylase activity assay; format: biochemical; conditions: 100 µM, FDL deacetylation assay, compared to the control group, mean ± SD; for activity at 100 µM: 0.5 h, read-out: % effect @ 100 µM of SIRT3
T1 construct: purchased Enzo Life Sciences BML-AK557-0001
T1 sequence (Q9NTG7 1-399): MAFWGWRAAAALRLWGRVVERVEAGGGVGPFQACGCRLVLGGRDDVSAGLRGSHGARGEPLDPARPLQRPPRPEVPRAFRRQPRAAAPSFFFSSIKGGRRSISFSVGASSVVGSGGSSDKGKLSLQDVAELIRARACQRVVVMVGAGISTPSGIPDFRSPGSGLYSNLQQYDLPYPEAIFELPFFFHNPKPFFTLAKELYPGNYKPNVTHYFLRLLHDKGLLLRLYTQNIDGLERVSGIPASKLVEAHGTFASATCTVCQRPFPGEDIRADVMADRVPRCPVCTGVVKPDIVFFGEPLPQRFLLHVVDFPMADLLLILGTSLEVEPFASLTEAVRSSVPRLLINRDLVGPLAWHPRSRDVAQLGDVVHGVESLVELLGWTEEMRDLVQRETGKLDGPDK
Description: The SIRT3 activity was assessed using the Enzo Life Sciences kit (BML-AK557-0001) per the protocol provided. A 10 μM fluoro-acetylated p53 peptide and 500 μM NAD^+ were added to SIRT3 assay buffer, incubated with test compounds and 0.5 μg recombinant SIRT3 at 37 °C for 30 min. In the mass spectrometry (MS) assay, 5 μM hSirt3 was reacted with 0.25 mM peptide and 1.25 mM NAD^+, with or without 10 μM SKLB-11A in 2% DMSO, at 37 °C. Controls included 2% DMSO without SKLB-11A. The reaction was halted at defined intervals using 5 mM nicotinamide, and the mixture then underwent filtration and subjected to nano LC-MS/MS analysis. Acetylated Peptide: MnSOD-K122 ([…]-Ac).

SMILES | effect of co-treatment on the cardioprotective efficacy of SKLB-11A (H9c2 cells) | LC3-II and p62 (autophagic flux) [1] | viability at 10 µM (H9c2 cells) [%] | activity at 100 µM (SIRT3) [%] | % effect @ 100 µM of SIRT3 (SIRT3)
c1cncc(-c2cn[nH]n2)c1 [3-TYP, reference compound] | attenuated the efficacy of SKLB-11A | reduced LC3-II localization | – | – | –
COc1cccc2c1C(=O)c1c(O)c3c(c(O)c1C2=O)C[C@@](O)(C(=O)CO)C[C@@H]3O[C@H]1C[C@H](N)[C@H](O)[C@H](C)O1 [Dox, doxorubicin, reference compound] | – | – | 61.93 ± 0.51 | – | –
COc1cc(-n2c(=S)[nH]c3ccccc3c2=O)c(Cl)cc1Cl [Mdivi-1, reference compound] | attenuated the cardioprotective effects of SKLB-11A | – | – | – | –
COc1ccc(Cn2c(N)c(C#N)c3nc4ccccc4nc32)cc1 [SKLB-4A, 2-amino-1-(4-methoxybenzyl)-1H-pyrrolo[2,3-b]quinoxaline-3-carbonitrile] | – | – | 65.3 ± 4.54 | 118.2 ± 0.79 | –
N#Cc1c(N)n(Cc2ccc(F)cc2)c2nc3ccccc3nc12 [SKLB-4B, 2-amino-1-(4-fluorobenzyl)-1H-pyrrolo[2,3-b]quinoxaline-3-carbonitrile] | – | – | 70.8 ± 3.03 | 130.6 ± 0.36 | significant increase in SIRT3 deacetylation activity
N#Cc1c(N)n(Cc2ccc(Br)cc2)c2nc3ccccc3nc12 [SKLB-4C, 2-amino-1-(4-bromobenzyl)-1H-pyrrolo[2,3-b]quinoxaline-3-carbonitrile] | – | – | 68.25 ± 0.51 | 126.4 ± 0.81 | –
COc1cccc(-n2c(N)c(C#N)c3nc4ccccc4nc32)c1 [SKLB-4D, 2-amino-1-(3-methoxyphenyl)-1H-pyrrolo[2,3-b]quinoxaline-3-carbonitrile] | – | – | 64.4 ± 3.28 | 103.1 ± 1.02 | –
COc1ccc(-n2c(N)c(C#N)c3nc4ccccc4nc32)cc1 [SKLB-4E, 2-amino-1-(4-methoxyphenyl)-1H-pyrrolo[2,3-b]quinoxaline-3-carbonitrile] | – | – | 65.9 ± 2.41 | 110.4 ± 0.95 | –
N#Cc1c(N)n(-c2ccccc2F)c2nc3ccccc3nc12 [SKLB-4F, 2-amino-1-(2-fluorophenyl)-1H-pyrrolo[2,3-b]quinoxaline-3-carbonitrile] | – | – | 65.17 ± 0.38 | 106 ± 1.96 | –
Nc1c(C(=O)O)c2nc3ccccc3nc2n1Cc1ccc(F)cc1 [SKLB-5A, 2-amino-1-(4-fluorobenzyl)-1H-pyrrolo[2,3-b]quinoxaline-3-carboxylic acid] | – | – | 75.5 ± 2.69 | 154 ± 2.69 | –
CC(C)(C)OC(=O)Nc1c(C(=O)O)c2nc3ccccc3nc2n1Cc1ccc(F)cc1 [SKLB-7A, 2-((tert-butoxycarbonyl)amino)-1-(4-fluorobenzyl)-1H-pyrrolo[2,3-b]quinoxaline-3-carboxylic acid] | – | – | 66.1 ± 0.8 | 109.3 ± 0.71 | significantly reduced SIRT3 deacetylation activity
CCOC(=O)c1c(N)n(Cc2ccc(F)cc2)c2nc3ccccc3nc12 [SKLB-11B, Ethyl 2-amino-1-(4-fluorobenzyl)-1H-pyrrolo[2,3-b]quinoxaline-3-carboxylate] | – | – | 77 ± 1.96 | 167.4 ± 1.13 | maintained or enhanced the activity
CC(C)OC(=O)c1c(N)n(Cc2ccc(F)cc2)c2nc3ccccc3nc12 [SKLB-11C, Isopropyl 2-amino-1-(4-fluorobenzyl)-1H-pyrrolo[2,3-b]quinoxaline-3-carboxylate] | – | – | 70.2 ± 1.89 | 124.2 ± 0.84 | –
CC(C)(C)OC(=O)c1c(N)n(Cc2ccc(F)cc2)c2nc3ccccc3nc12 [SKLB-11D, Tert-butyl 2-amino-1-(4-fluorobenzyl)-1H-pyrrolo[2,3-b]quinoxaline-3-carboxylate] | – | – | 74.3 ± 1.7 | 148 ± 3.07 | maintained or enhanced the activity
Nc1c(C(=O)Oc2ccccc2)c2nc3ccccc3nc2n1Cc1ccc(F)cc1 [SKLB-11E, Phenyl 2-amino-1-(4-fluorobenzyl)-1H-pyrrolo[2,3-b]quinoxaline-3-carboxylate] | – | – | 71.3 ± 4.34 | 130.6 ± 1.27 | –
CC(C)(C)OC(=O)c1c(N)n(Cc2ccccc2)c2nc3ccccc3nc12 [SKLB-11F, Tert-butyl 2-amino-1-benzyl-1H-pyrrolo[2,3-b]quinoxaline-3-carboxylate] | – | – | 69 ± 1.22 | 122.7 ± 0.59 | –
Cc1ccc(Cn2c(N)c(C(=O)OC(C)(C)C)c3nc4ccccc4nc32)cc1 [SKLB-11G, Tert-butyl 2-amino-1-(4-methylbenzyl)-1H-pyrrolo[2,3-b]quinoxaline-3-carboxylate] | – | – | 63.93 ± 0.62 | 107 ± 1.42 | –
COc1ccc(Cn2c(N)c(C(=O)OC(C)(C)C)c3nc4ccccc4nc32)cc1 [SKLB-11H, Tert-butyl 2-amino-1-(4-methoxybenzyl)-1H-pyrrolo[2,3-b]quinoxaline-3-carboxylate] | – | – | 68.7 ± 4.61 | 125.7 ± 0.91 | –
NC(=O)c1c(N)n(Cc2ccc(F)cc2)c2nc3ccccc3nc12 [SKLB-11I, 2-amino-1-(4-fluorobenzyl)-1H-pyrrolo[2,3-b]quinoxaline-3-carboxamide] | – | – | 70.8 ± 3.76 | 135 ± 2.43 | –
CNC(=O)c1c(N)n(Cc2ccc(F)cc2)c2nc3ccccc3nc12 [SKLB-11J, 2-amino-1-(4-fluorobenzyl)-N-methyl-1H-pyrrolo[2,3-b]quinoxaline-3-carboxamide] | – | – | 72.4 ± 2.21 | 150 ± 1.75 | –
CCNC(=O)c1c(N)n(Cc2ccc(F)cc2)c2nc3ccccc3nc12 [SKLB-11K, 2-amino-N-ethyl-1-(4-fluorobenzyl)-1H-pyrrolo[2,3-b]quinoxaline-3-carboxamide] | – | – | 71.5 ± 2.09 | 144.3 ± 0.82 | –
CCCCNC(=O)c1c(N)n(Cc2ccc(F)cc2)c2nc3ccccc3nc12 [SKLB-11L, 2-amino-N-butyl-1-(4-fluorobenzyl)-1H-pyrrolo[2,3-b]quinoxaline-3-carboxamide] | – | – | 67.1 ± 1.6 | 123.6 ± 0.95 | –
Nc1c(C(=O)NC2CC2)c2nc3ccccc3nc2n1Cc1ccc(F)cc1 [SKLB-11M, 2-amino-N-cyclopropyl-1-(4-fluorobenzyl)-1H-pyrrolo[2,3-b]quinoxaline-3-carboxamide] | – | – | 64.5 ± 0.87 | 104 ± 1.75 | –
CCCCCNC(=O)c1c(N)n(Cc2ccccc2)c2nc3ccccc3nc12 [SKLB-11N, 2-amino-1-benzyl-N-pentyl-1H-pyrrolo[2,3-b]quinoxaline-3-carboxamide] | – | – | 66.3 ± 4.52 | 119 ± 3.3 | –
CCCCCNC(=O)c1c(N)n(Cc2ccc(Br)cc2)c2nc3ccccc3nc12 [SKLB-11O, 2-amino-1-(4-bromobenzyl)-N-pentyl-1H-pyrrolo[2,3-b]quinoxaline-3-carboxamide] | – | – | 69.2 ± 1.35 | 126 ± 1.32 | –
CCCCCNC(=O)c1c(N)n(Cc2cccc(Br)c2)c2nc3ccccc3nc12 [SKLB-11P, 2-amino-1-(3-bromobenzyl)-N-pentyl-1H-pyrrolo[2,3-b]quinoxaline-3-carboxamide] | – | – | 65.8 ± 4.18 | 116.2 ± 0.57 | –
CCCCCNC(=O)c1c(N)n(Cc2cccc(Cl)c2)c2nc3ccccc3nc12 [SKLB-11Q, 2-amino-1-(3-chlorobenzyl)-N-pentyl-1H-pyrrolo[2,3-b]quinoxaline-3-carboxamide] | – | – | 66.5 ± 1.19 | 118 ± 0.63 | –
